From PMC7914897, “Cytotoxic Potential of a-Azepano- and 3-Amino-3,4-SeCo-Triterpenoids” (International Journal of Molecular Sciences, 2021)

Tested on: A375 cells
Test: Annexin V/PI flow cytometry
Type: cell-based, human
Conditions: A375, 48 h, 2 × EC50
Method: Due to its good cytotoxic properties, compound 11 was subjected to flow cytometric measurements (Annexin V/PI assay).
Thereby, the BL1-A signal corresponds to the FITC signal for annexin V (x-axis) while PI is detected at BL3-A (y-axis). Thus, cells in R1 correspond to necrotic cells, those in R2 to late apoptosis, cells in R3 are viable cells, and cells in R4 have died from apoptosis.
Approximately 600,000 cells (A375) were seeded in cell culture flasks and were allowed to grow for 1 day. After removing of the medium, the substance loaded medium was added, and the flasks were incubated for 48 h. All cells were harvested, centrifuged (1200 rpm, 5 min), and washed twice (PBS (w/w)). Approximately 100,000 cells were washed with annexin V bounding buffer (BD Biosciences®) and treated with a propidium iodide solution (3 μL, 1 mg/mL) and annexin V (5 μL, BD Biosciences®) for 15 min at room temperature in the dark. After adding annexin V bounding buffer (400 μL) the suspension was submitted to a FACS measurement.

C=C(C)[C@@H]1CC[C@]2(C(=O)N[C@H](CO)Cc3ccccc3)CC[C@]3(C)[C@H](CC[C@@H]4[C@@]5(C)CCCNC(C)(C)[C@@H]5CC[C@]43C)[C@@H]12 [Compound 11]
cells died by apoptosis (R4): 44.3% | necrotic cells (R1): 1.1%
